Data taken from PubChem BioAssay (NCI).
Values joined by “and” are separate entries in the source; they are usually repeats but may differ in a detail not shown here. Equal values may be shown once.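 Exposure lasted 48 hours, with cells grown in 96-well plates and compounds tested at five concentrations. Here, GI50 denotes the concentration required for 50% inhibition of growth. Definition used: TGI = concentration required for complete inhibition of growth.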

Tests used:
Assay in all cases: NCI tumour cell line growth inhibition, 48 h
[1] = tested on: NCI-H226 lung
[2] = tested on: ACHN renal
[3] = tested on: OVCAR-8 ovarian
[4] = tested on: M14 melanoma
[5] = tested on: LOX IMVI melanoma
[6] = tested on: UACC-257 melanoma
[7] = tested on: CAKI-1 renal
[8] = tested on: IGROV1 ovarian
[9] = tested on: SNB-75 CNS
[10] = tested on: CCRF-CEM leukemia

Row | Structure (SMILES) | TGI [1] | TGI [2] | TGI [3] | TGI [4] | TGI [5] | TGI [6] | TGI [7] | TGI [8] | TGI [9] | TGI [10] | GI50 [1] | GI50 [6] | GI50 [8] | GI50 [10] | GI50 [2] | GI50 [3] | GI50 [4] | GI50 [5] | GI50 [9] | GI50 [7]
1 | C(=NCCN1CCOCC1)=NC1CCCCC1 | > 100 µM | > 100 µM | > 100 µM | > 100 µM | > 100 µM | > 100 µM | > 100 µM | > 100 µM | > 100 µM | – | – | – | – | – | – | – | – | – | – | –
2 | CN(C)CCNC(=O)c1cccc2ccc(-c3ccc(O)cc3)nc12 | 6.33 µM and 3.6 µM | 4.98 µM | 4.13 µM | 2.75 µM | 3.43 µM | 8.29 µM and 10.1 µM | 6.53 µM and 11.3 µM | 15.7 µM and 11.8 µM | 11.7 µM | 7.25 µM | 0.94 µM | 1.06 µM | 2.06 µM | – | – | – | – | – | – | –
3 | O=C(O)COc1ccc2c(=O)c3sc4c(=O)c5ccccc5c(=O)c4c3c(=O)c2c1 | 41.1 µM | > 100 µM | 73.6 µM | 7.53 µM | 61.1 µM | 34.7 µM | – | 48.3 µM | 11.7 µM | 62.9 µM | 15 µM | 16.2 µM | 18.3 µM | 23.6 µM | 23 µM | 24.8 µM | 2.69 µM | 9.18 µM | 2.06 µM | –
4 | Cc1cc(Nc2ccc(NC(=O)c3ccc(Nc4ccnc5ccccc45)cc3)cc2)nc(N)n1 | 5 µM | > 100 µM | – | > 100 µM | – | 87.7 µM | > 100 µM | 63.5 µM | 43 µM | – | 2.42 µM | 21.8 µM | 15 µM | – | 21.6 µM | – | 7.62 µM | – | 12.2 µM | > 100 µM
5 | COc1cccc(C2CC(C)(O)Oc3cc4c(cc32)OCO4)c1O (stereo unspecified) | 57.9 µM | > 100 µM | 67.8 µM | > 65.8 µM | > 100 µM | > 100 µM | > 100 µM | > 100 µM | 60.2 µM | > 95.9 µM | – | – | – | – | – | – | – | – | – | –
6 | Cc1ccc(S(=O)(=O)Nc2ccccc2C=O)cc1 | 41.5 µM | 46.7 µM | 34.1 µM | 54.7 µM | 27.5 µM | 45.7 µM | > 100 µM | 38.3 µM | 57.7 µM | – | – | – | – | – | – | – | – | – | – | –
7 | Cc1cc(C)c2c(n1)sc1c(Nc3ccc(Cl)cc3)ncnc12 | 5.67 µM | > 51.2 µM | > 100 µM | – | > 100 µM | > 100 µM | > 27.6 µM | > 100 µM | > 26.4 µM | > 100 µM | 0.0333 µM | 0.107 µM | > 100 µM | < 0.01 µM | < 0.01 µM | < 0.01 µM | < 0.01 µM | < 0.01 µM | 0.017 µM | < 0.01 µM
8 | Cc1ccc(SC2c3ccc(C)cc3Oc3nc(N)c(C#N)c(N)c32)cc1 (stereo unspecified) | 4 µM | 2.99 µM | 3.06 µM | 3.49 µM | 3.14 µM | 3.22 µM | – | – | 4.53 µM | 6.77 µM | 1.77 µM | 1.8 µM | – | 2.18 µM | 1.63 µM | 1.67 µM | 1.77 µM | 1.59 µM | 1.5 µM | –
9 | c1ccc2cc(-c3cc4ccccc4s3)ccc2c1 | > 100 µM | > 100 µM | > 100 µM | > 100 µM | > 100 µM | > 100 µM | > 100 µM | > 100 µM | 93.7 µM | > 100 µM | – | – | – | – | – | – | – | – | – | –
10 | O=C1CCC(Cl)=CC2CCCN12 (stereo unspecified) | > 100 µM | > 100 µM | > 100 µM | > 100 µM | > 100 µM | > 100 µM | > 100 µM | > 100 µM | > 100 µM | – | – | – | – | – | – | – | – | – | – | –
11 | CC1(C)COC(C2(C)C(=O)C=C(c3ccccc3)c3ccccc32)=N1 (stereo unspecified) | > 100 µM | > 100 µM | > 100 µM | > 100 µM | – | > 100 µM | > 100 µM | > 100 µM | > 100 µM | > 100 µM | – | – | – | – | – | – | – | – | – | –
12 | CC/C=C\C[C@H](O)C/C=C1/C(=O)C(Cl)=C[C@@H]1C/C=C\CCCC(=O)OC | 2.26 µM | 0.849 µM | 0.864 µM | 3.43 µM | 0.52 µM | – | 1.89 µM | 3.35 µM | 4.65 µM | 1.73 µM | 0.537 µM | – | 0.867 µM | 0.412 µM | 0.378 µM | 0.347 µM | 0.611 µM | 0.258 µM | 1.88 µM | 0.523 µM
13 | CC(C)N(C(=O)C12C3C4C1C1C4(C#N)C3C12C#N)C(C)C (stereo unspecified) | > 100 µM | > 100 µM | > 100 µM | > 100 µM | – | > 100 µM | > 100 µM | > 100 µM | – | > 100 µM | – | – | – | – | – | – | – | – | – | –
14 | O=CCC1CCCCC1 | > 100 µM | > 100 µM | – | > 100 µM | > 100 µM | > 100 µM | > 100 µM | > 100 µM | > 100 µM | – | – | – | – | – | – | – | – | – | – | –
15 | NC(N)=N/N=C/c1c(-c2ccsc2)nc2sccn12 | 31.2 µM | 32 µM | 61.7 µM | 32.4 µM | 33.2 µM | 41.1 µM | 21.9 µM | – | 26.4 µM | 6.07 µM | 16.4 µM | 22.3 µM | – | 1.48 µM | 16.9 µM | 31.1 µM | 18.5 µM | 17.6 µM | 13.4 µM | 10.3 µM
16 | Nc1ccc([N+](=O)[O-])cc1N=C/C=C/c1ccccc1 | > 100 µM | > 100 µM | > 100 µM | > 100 µM | 80.7 µM | > 100 µM | – | 42.7 µM | 96.6 µM | – | 27.8 µM | 47.7 µM | 7.48 µM | – | 34.4 µM | 23.5 µM | 8.66 µM | 3.98 µM | 10.8 µM | –
17 | COc1ccc2occ(CCC(=O)O)c2c1 | – | > 100 µM | > 100 µM | > 100 µM | > 100 µM | > 100 µM | > 100 µM | > 100 µM | > 100 µM | > 100 µM | – | – | – | – | – | – | – | – | – | –
18 | CO/N=C(/C)c1cccc(Nc2cc(-n3nnc4ccccc43)nc3ccccc23)c1 | > 100 µM | > 100 µM | > 100 µM | > 100 µM | – | > 100 µM | > 100 µM | > 100 µM | > 100 µM | > 100 µM | 27.3 µM | 87.5 µM | > 100 µM | 20.7 µM | 42.3 µM | 87.1 µM | 37.4 µM | – | > 100 µM | 22.5 µM
